For assay [1], the system named is PTH-induced cAMP elevation in urine. Nature of the assay: In vivo model of hyperparathyroidism: PTH-induced cAMP elevation in urine in the anaesthetised rat. The following applies: i.v. infusion, PTH challenge, urine collected from 90 to 120 min, result in words. From the text:
Within the kidney, the binding of parathyroid hormone (PTH) to PTH receptors results in the Gas-mediated elevation of intracellular cAMP. This increase of intracellular cAMP results in extrusion of cAMP to the urine (Yates et al., J Clin Invest 81: 932-938, 1988). This experiment is based upon a modified Ellsworth-Howard assay (Kruse, K. and Kracht, U., European Journal of Pediatrics 146: 373-377, 1987) and conducted in anaesthetized rats. In this experiment, rats were anaesthetized using isoflurane and catheterised to allow the collection of urine from the bladder. After an initial stabilization period, test compounds were administered by i.v. infusion (modelled to steady state) from time 0-120 min. PTH challenge infusion (33 ug/kg/hour) was started after 60 min of test compound infusion and sustained for one hour (60-120 min). Urine collection was conducted in 30-minute periods. Urine cAMP levels were assessed by ELISA (R&D systems). Urine samples were prepared for analysis as per the manufacturer's instructions. A standard curve for cAMP was assayed for each experiment and samples were assessed using a standard dilution range of 1:2, 1:4, 1:8 and 1:16, ensuring that the resulting data remained on the linear portion of the standard curve. […] Urine cAMP concentration remained below 50,000 pmol/mL. […]

Another assay has as its target T1, PDE4D5 (Homo sapiens, UniProt Q08499).
T1 construct: Using Full-Length Human PDE4 Isoforms: Long Forms PDE4D5, PDE4C3, PDE4B1 and Short Form PDE4B2; made in house; cytosol fraction of the cell lysate, not purified
Briefly: PDE assay, activation of full-length human PDE4D5 long form ([3H]cAMP radio-assay). Format: biochemical. The following applies: 30 μM test compound; mean % increase in counts over basal activity. The method in brief:
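Cytosol (100,000 g) from HEK293 cells overexpressing full-length human PDE4 was preincubated with compound for 15 min at room temperature in 10 mM Tris/5 mM MgCl2. Reaction ran with 1 μM [3H]cAMP for 10 min at 30° C, then snake venom conversion, Dowex separation and scintillation counting; activity reported as % increase.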

T1 sequence (Q08499 1-745 isoform Q08499-6): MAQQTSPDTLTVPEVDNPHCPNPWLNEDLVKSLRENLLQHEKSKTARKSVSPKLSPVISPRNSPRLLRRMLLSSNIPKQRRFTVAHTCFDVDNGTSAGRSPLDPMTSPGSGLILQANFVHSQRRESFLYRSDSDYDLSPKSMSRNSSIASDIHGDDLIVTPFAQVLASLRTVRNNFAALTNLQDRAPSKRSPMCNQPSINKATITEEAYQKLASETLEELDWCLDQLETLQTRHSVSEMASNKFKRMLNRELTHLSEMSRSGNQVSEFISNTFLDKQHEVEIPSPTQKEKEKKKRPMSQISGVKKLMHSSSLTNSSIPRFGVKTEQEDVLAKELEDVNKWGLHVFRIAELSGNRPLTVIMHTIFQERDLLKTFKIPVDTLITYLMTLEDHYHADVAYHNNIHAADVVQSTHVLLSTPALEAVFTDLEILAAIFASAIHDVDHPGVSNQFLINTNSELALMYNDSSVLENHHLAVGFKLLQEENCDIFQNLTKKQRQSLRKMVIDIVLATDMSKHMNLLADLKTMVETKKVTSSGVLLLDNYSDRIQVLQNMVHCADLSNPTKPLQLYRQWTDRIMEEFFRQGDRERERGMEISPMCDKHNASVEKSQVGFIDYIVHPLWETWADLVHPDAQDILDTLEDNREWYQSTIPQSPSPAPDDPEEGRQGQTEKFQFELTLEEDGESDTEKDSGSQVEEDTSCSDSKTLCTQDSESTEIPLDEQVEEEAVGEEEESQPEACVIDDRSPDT

Regarding `Cc1ncccc1-c1nc2ccc(C(=O)N[C@H]3CCOc4ccccc43)cc2s1` [Example 7, (S)-N-(chroman-4-yl)-2-(2-methylpyridin-3-yl)benzo[d]thiazole-6-carboxamide], the “Inhibition of PTH-induced cAMP elevation in rat urine (FIG. 3)” value in assay [1] is “inhibition”. This compound also yielded an activation at 30 µM at PDE4D5 of 109%.

Source of the values: patent publication US20240150339A1, “Compounds and Their Use as PDE4 Activators” (Mironid Limited, priority 2021, published 2024).
